The target in assay [1] is T1, TRPA1 (Rattus norvegicus, UniProt Q6RI86).
T1 construct: expressed in transfected cells; host or cells: HEK 293F
Put plainly: Single-channel recordings of TRPA1 (outside-out / cell-attached patches). To be noted: for TRPA1 single-channel conductance in presence of VGA: 0.23 mM isoflurane, 0.9 mM desflurane, reduced from ≈110 pS; for Single TRPA1 channel activity: cell-free patches. Type of assay: cell-based. The protocol:
(§1) Electrophysiology. HEK 293F cells were transfected with rat TRPV1, TRPA1, and TRPM8 (gift of David Julius, University of California, San Francisco). Dorsal root ganglia were cultured from adult mice (C57B16/J wild type and TRPV1-null, and mixed B6/129 background TRPA1-null) in Neurobasal +2% B-27 medium (Invitrogen), 0.1% L-glutamine and 1% penicillin/streptomycin. Whole-cell and single-channel patch-clamp recordings were performed by using an EPC8 amplifier (HEKA Electronics). For whole-cell and excised patch recordings the bath solution contained 140 mMNaCl, 4 mMKCl, 1 mMMgCl2, 1.2 mMCaCl2, 10 mMHepes, 10 mM glucose, pH 7.3. For cell-attached experiments, NaCl was replaced with KCl in the bath solution. The pipette solution contained 140 mM NaCl or KCl, 10 mM Hepes, 5 mM EGTA, pH 7.3. For neuronal recording NaCl was replaced with K-gluconate (plus 1 mMATP, 0.2 mM GTP). Solutions were applied via a gravity-fed system. Separate outlets were used to apply capsaicin and AITC solutions to avoid contamination. Voltage-dependent properties were measured as described in Matt and Ahern, J. Physiol. 585:469-482 (2007). Current-voltage measurements comprised a 200-ms ramp from −150 mV to +200 mV. The baseline currents under control conditions were subtracted. For cell-attached experiments, peak amplitudes were measured from all-points histograms, and open probability was measured as NPo>750 ms. Defolliculated Xenopus laevis oocytes were injected with ≈10 ng of hTRPA1 (gift of Ardem Patapoutian, The Scripps Research Institute, La Jolla, Calif.). Oocytes were placed in a Perspex chamber and continuously superfused (5 ml min^−1) with Ca^2+-free solution containing 100 mM NaCl, 2.5 mM KCl, 5 mM Hepes, 1 mM MgC12 and titrated to pH 7.3 with ˜5 mM NaOH.

For assay [2] the following is noted: rat at 37° C.; cited from earlier work.
A further assay has as its target T2, hTRPA1 (Homo sapiens, UniProt O75762).
T2 construct: expressed in transfected cells; host or cells: Xenopus laevis oocytes (injected)
Put plainly: AITC-evoked currents in TRPA1-expressing Xenopus oocytes. The format is cell-based. To be noted: VGAs 0.5-0.65 mM, AITC 10 μM. The procedure:
as §1

Assay [3] has as its target T1, TRPA1. Put plainly: Whole-cell patch-clamp of TRPA1-expressing HEK293 cells. Type of assay: cell-based. Conditions: for Activation of TRPA1 currents by VGAs: 0.9 mM, voltage-clamped HEK293 cells. The protocol: Electrophysiology. […] Whole-cell and single-channel patch-clamp recordings were performed by using an EPC8 amplifier (HEKA Electronics). For whole-cell and excised patch recordings the bath solution contained 140 mMNaCl, 4 mMKCl, 1 mMMgCl2, 1.2 mMCaCl2, 10 mMHepes, 10 mM glucose, pH 7.3. For cell-attached experiments, NaCl was replaced with KCl in the bath solution. […] For neuronal recording NaCl was replaced with K-gluconate (plus 1 mMATP, 0.2 mM GTP). Solutions were applied via a gravity-fed system. […] Voltage-dependent properties were measured as described in Matt and Ahern, J. Physiol. […] The baseline currents under control conditions were subtracted. For cell-attached experiments, peak amplitudes were measured from all-points histograms, and open probability was measured as NPo>750 ms. Defolliculated Xenopus laevis oocytes were injected with ≈10 ng of hTRPA1 (gift of Ardem Patapoutian, The Scripps Research Institute, La Jolla, Calif.).
Volatile General Anesthetics and Chemicals. Saturated stock solutions of volatile GAs were prepared in gas-tight bottles by dissolving excess anesthetic agents in bath solutions overnight. From these stock solutions fresh dilutions were made up every 40-60 min. Concentrations of GAs in the bath solutions were verified by using a modified head-space gas chromatography method. […] Alcohols with <6 carbons were dissolved directly into extracellular solution, and alcohols containing 6 carbons or more were dissolved in DMSO and then diluted into extracellular solutions that were sonicated for 20 min. All other drugs were prepared as stock solutions in DMSO or ethanol and diluted into physiological solution before experiments.
(The patch-clamp technique gives a direct electrical read-out from membranes.)

Another assay has as its target TRPV1 (Rattus norvegicus, UniProt O35433). Put plainly: Voltage-clamp of TRPV1-expressing Xenopus oocytes (capsaicin, protons, heat). The format is cell-based. Conditions: for Temperature threshold of TRPV1 heat activation: control ~46° C. The procedure:
Oocyte electrophysiology. […] Oocytes were placed in a Perspex chamber and continuously superfused (5 ml min-1) with Ca2+-free solution containing (in mM): 100 NaCl, 2.5 KCl, 5 HEPES, 1 MgCl2 and titrated to pH 7.3 with ˜5 mM NaOH. For solutions <pH 6.0, HEPES was replaced with either 5 mM MES or 5 mM sodium citrate. Oocytes were routinely voltage-clamped at −60 mV at 22-23° C. For heat activation, bath temperature was raised from ˜22-50° C. over ˜100 s using an in-line solution heater (Warner Instruments). The temperature was continuously monitored with a probe placed within 2 mm of the oocyte. The temperature-activation threshold was defined as a 20% increase in current above baseline.
Volatile general anesthetics. Saturated stock solutions of volatile general anesthetics (VGAs) were prepared in gas-tight bottles by dissolving excess anesthetic agents in bath solutions and stirring vigorously overnight. From these stock solutions fresh dilutions were made up every 40-60 minutes. Concentrations of volatile anesthetics in the bath solutions were verified using a modified head-space gas chromatography method. The gas chromatograph (Carlo Erba, Milan, Italy) was equipped with a flame ionization detector (FID) and mass spectrometer. The carrier gas was hydrogen (60 kPa column head pressure) and the fused silica capillary column, coated with polysiloxane SE-30, was 25 m×0.25 mm. Injector temperature was 250° C., FID temperature was 300° C. and the oven was maintained at 90° C. Standards were prepared from a mixture of halothane, isoflurane, and sevoflurane dissolved in acetonitrile with enflurane as an internal standard.

“Also recorded” adds a separate entry of the source.

T1 sequence (Q6RI86 whole entry): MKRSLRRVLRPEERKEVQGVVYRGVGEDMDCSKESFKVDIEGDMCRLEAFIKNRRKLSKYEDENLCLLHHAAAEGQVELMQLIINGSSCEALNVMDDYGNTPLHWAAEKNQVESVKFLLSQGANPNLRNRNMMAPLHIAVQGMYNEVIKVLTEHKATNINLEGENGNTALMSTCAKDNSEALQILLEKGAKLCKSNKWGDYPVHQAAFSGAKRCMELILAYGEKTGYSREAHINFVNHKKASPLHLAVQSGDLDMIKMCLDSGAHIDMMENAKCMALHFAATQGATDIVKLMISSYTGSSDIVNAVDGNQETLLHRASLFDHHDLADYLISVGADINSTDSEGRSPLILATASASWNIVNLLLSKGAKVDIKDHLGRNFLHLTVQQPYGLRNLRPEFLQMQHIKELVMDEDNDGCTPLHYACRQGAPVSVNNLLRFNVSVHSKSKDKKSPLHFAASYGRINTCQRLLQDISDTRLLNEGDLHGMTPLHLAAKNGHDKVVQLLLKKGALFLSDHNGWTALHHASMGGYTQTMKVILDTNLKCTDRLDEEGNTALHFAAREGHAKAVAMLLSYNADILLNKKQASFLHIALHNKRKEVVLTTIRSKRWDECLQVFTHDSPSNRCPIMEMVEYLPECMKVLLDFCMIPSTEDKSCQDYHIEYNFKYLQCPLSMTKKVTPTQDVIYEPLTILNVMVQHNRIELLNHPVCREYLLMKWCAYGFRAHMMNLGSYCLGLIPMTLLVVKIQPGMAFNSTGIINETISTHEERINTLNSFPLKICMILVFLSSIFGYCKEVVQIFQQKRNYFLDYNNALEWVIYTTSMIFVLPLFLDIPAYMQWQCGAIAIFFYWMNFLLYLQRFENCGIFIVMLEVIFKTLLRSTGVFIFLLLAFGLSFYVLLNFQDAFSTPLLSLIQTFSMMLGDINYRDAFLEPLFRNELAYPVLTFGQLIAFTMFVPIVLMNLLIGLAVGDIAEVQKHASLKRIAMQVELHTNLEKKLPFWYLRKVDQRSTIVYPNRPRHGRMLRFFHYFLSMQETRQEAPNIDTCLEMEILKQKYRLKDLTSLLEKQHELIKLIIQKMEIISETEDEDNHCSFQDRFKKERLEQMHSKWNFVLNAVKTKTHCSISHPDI
Chain of TRPV1 (O35433 whole entry, the tested form may be a part): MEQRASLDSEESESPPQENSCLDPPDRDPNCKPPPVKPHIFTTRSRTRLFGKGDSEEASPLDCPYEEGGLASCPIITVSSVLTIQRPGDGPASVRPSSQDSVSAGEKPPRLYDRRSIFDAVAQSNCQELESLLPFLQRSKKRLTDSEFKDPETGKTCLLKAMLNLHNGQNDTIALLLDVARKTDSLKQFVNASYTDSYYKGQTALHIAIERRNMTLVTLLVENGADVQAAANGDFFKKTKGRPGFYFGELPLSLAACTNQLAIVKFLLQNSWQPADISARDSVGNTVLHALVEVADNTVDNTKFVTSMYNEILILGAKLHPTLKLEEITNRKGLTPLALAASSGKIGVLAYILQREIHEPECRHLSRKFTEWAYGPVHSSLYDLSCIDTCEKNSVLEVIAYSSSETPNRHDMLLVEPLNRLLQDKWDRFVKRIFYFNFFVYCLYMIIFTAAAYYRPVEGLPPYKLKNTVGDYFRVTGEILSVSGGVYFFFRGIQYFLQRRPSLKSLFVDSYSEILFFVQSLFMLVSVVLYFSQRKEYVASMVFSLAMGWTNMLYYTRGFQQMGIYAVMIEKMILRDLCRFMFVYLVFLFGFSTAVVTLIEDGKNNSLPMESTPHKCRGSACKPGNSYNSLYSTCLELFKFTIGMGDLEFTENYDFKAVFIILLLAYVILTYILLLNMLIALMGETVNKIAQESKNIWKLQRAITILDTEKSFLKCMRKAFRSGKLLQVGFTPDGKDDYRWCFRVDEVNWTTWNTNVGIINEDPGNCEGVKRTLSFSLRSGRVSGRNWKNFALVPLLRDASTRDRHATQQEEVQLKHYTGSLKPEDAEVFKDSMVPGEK
T2 sequence (O75762 whole entry): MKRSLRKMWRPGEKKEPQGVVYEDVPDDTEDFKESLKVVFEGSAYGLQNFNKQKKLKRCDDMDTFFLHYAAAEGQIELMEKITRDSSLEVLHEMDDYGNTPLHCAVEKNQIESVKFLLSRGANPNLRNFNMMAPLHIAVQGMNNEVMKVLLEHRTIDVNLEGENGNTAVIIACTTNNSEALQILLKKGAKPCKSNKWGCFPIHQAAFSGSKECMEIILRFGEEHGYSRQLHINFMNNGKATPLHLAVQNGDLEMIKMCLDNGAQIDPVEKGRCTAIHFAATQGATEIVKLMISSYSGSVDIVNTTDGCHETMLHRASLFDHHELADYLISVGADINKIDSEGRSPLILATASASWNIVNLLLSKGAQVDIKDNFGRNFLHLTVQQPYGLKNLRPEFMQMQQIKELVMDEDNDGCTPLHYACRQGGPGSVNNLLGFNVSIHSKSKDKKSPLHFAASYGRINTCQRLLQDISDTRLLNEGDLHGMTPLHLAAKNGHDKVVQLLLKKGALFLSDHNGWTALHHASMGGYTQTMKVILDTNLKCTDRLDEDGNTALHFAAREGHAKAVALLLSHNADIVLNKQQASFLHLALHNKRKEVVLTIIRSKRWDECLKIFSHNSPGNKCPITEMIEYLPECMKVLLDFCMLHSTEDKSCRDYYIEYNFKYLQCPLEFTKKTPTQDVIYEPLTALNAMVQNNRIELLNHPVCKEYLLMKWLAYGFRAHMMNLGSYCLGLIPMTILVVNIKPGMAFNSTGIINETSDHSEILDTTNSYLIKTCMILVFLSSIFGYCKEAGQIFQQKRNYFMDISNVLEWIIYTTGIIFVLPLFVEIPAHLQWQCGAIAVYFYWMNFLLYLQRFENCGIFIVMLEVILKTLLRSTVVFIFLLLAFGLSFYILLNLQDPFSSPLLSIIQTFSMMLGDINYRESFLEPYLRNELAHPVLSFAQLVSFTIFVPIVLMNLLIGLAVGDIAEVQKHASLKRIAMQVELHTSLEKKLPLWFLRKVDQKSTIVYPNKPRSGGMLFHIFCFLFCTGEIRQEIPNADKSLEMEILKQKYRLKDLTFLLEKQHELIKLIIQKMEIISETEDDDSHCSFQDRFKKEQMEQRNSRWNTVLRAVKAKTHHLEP

Consider `FC(F)OC(F)C(F)(F)F` (stereo not drawn) [desflurane], for which, at TRPA1 [1], the “TRPA1 single-channel conductance in presence of VGA” value is “≈ 80 pS” and the “Single TRPA1 channel activity” value is on record as “enhanced single-channel gating; also recorded: activate single TRPA1 channels”. For the same compound, the “Increase in maximal open probability of TRPA1” value on TRPA1 [1] (cell-attached patches) is recorded as > 6 fold. The “V1/2 of TRPA1 open probability in presence of desflurane” value on TRPA1 [1] (cell-attached patches, shifted from 72.1 mV) is recorded as 42.5 mV. Also, in assay [2], the “1 MAC equivalent aqueous concentration (published conversion factor)” value is listed as 0.51 mM. At hTRPA1, the “Effect on AITC-evoked currents” value is recorded as “markedly enhanced”. For the same compound, on TRPA1 [3], the “Activation of TRPA1 currents by VGAs” value was “robustly activated”. The “Enhancement of proton-evoked currents compared with isoflurane and sevoflurane” value at TRPV1 (VGAs 0.6 mM, pH 5.5) is recorded as “significantly more”.

As a reminder, the EC50 is the concentration giving half of the maximal effect. As to `FC(F)OC(Cl)C(F)(F)F` (stereo not drawn) [isoflurane], on TRPA1 [1], the “TRPA1 single-channel conductance in presence of VGA” value is recorded as “≈ 60 pS” and the “Single TRPA1 channel activity” value is recorded as “enhanced single-channel gating; also recorded: activate single TRPA1 channels”. Besides, in assay [2], the “1 MAC equivalent aqueous concentration (published conversion factor)” value is on record as 0.31 mM. Also, on hTRPA1, the “Effect on AITC-evoked currents” value is reported as “markedly enhanced”. For the same compound, on TRPA1 [3], the “Activation of TRPA1 after AITC treatment” value is recorded as “failed to activate” and the “Activation of TRPA1 currents by VGAs” value was “produced inward currents; also recorded: robustly activated”. For the same compound, the “TRPA1 response at high concentration” value at TRPA1 [3] (2.7 mM, additional blocking mechanism) is given as “reduced”. Moreover, at TRPA1 [3] (HEK293 cells), the “EC50 of TRPA1 activation expressed in MAC” value worked out at 0.57 MAC and the “Hill coefficient of TRPA1 activation” value was 1.6±0.2. At TRPA1 [3] (HEK293 cells, read-out: EC50 of TRPA1 activation), the concentration for a half-maximal effect (EC50) is 180 ± 20 µM. Besides, on TRPA1 [3] (isoflurane 0.9 mM + octanol 1.8 mM), the “Effect on TRPA1 when applied together with saturating octanol” value is reported as “negligible effects”. Besides, the “Activation of TRPA1 at holding potential −50 mV” value at TRPA1 [3] (isoflurane 0.9 mM, octanol 1 mM) was “selectively activated”. Further, at TRPA1 [3] (reduction at higher concentrations), the “Concentration at peak of bimodal dose-response relationship” value is “≈ 1 mM”. Moreover, on TRPV1 (0.5 mM isoflurane), the “Temperature threshold of TRPV1 heat activation” value turned out to be 43 °C. Also, the “Temperature threshold of TRPV1 heat activation” value at TRPV1 (0.9 mM isoflurane) came out at 40 °C. Moreover, on TRPV1 (isoflurane 0.9 mM), the “Enhancement of maximal proton-evoked current” value is listed as “approximately 3 fold”. Further, the “Temperature threshold of TRPV1 heat activation after PDBu application” value on TRPV1 (isoflurane 0.9 mM after PDBu, control 45.9±0.2) was determined as 32.8±0.8 °C. The “Enhancement of currents evoked by pH 5.5 solution” value on TRPV1 (isoflurane 0.9 mM, n=4) is “approximately 10 fold”. In addition, the “Maximal proton response as % of 10 μM capsaicin” value on TRPV1 (isoflurane 0.9 mM, control 14.3%) is recorded as 32.2%.

The record behind these values is patent US20110104301A1, “METHODS OF REDUCING PAIN AND INFLAMMATION” (Georgetown University, A Congressionally Chartered …, priority 2008, published 2011).
